From PubChem BioAssay AID204 (DTP/NCI, 2004) come the findings set out here.

This assay concerns BDF1 mice, P288 methotrexate-resistant leukemia, survival T/C. Briefly: NCI In Vivo Anticancer Drug Screen. Data for tumor model P288 Lymphocytic Leukemia resistant to methotrexate; NSC 740 (intraperitoneal) in B6D2F1 (BDF1) mice. As to conditions: endpoint: median survival time, higher = longer survival. The method, then:
The antitumor activity of compounds was measured in mice bearing transplantable tumors. Survival or tumor size were measured and the results are expressed as the measurement made in the treated group (T) divided by the measurement made in the vehicle treated control group (C). The tumor model used in this assay is P288 Lymphocytic Leukemia resistant to methotrexate; NSC 740 (intraperitoneal) in B6D2F1 (BDF1) mice

The mark [1] stands for this setting: dose: 10.0 mg/kg/injection, schedule: Q01DX010 (ip), vehicle: saline.
Setting [2] is: dose: 20.0 mg/kg/injection, schedule: Q01DX010 (ip), vehicle: saline.
The mark [3] stands for this setting: dose: 62.5 mg/kg/injection, schedule: Q01DX010 (ip), vehicle: saline.
[4] abbreviates: dose: 125.0 mg/kg/injection, schedule: Q01DX010 (ip), vehicle: saline.
Setting [5] is: dose: 250.0 mg/kg/injection, schedule: Q01DX010 (ip), vehicle: saline.
Setting [6] is: dose: 500.0 mg/kg/injection, schedule: Q01DX010 (ip), vehicle: saline.
[7] abbreviates: dose: 62.5 micrograms/kg/injection, schedule: Q01DX010 (ip), vehicle: saline.
The mark [8] stands for this setting: dose: 250.0 micrograms/kg/injection, schedule: Q01DX010 (ip), vehicle: saline.
[9] abbreviates: dose: 0.25 mg/kg/injection, schedule: Q01DX010 (ip), vehicle: saline.
[10] abbreviates: dose: 0.5 mg/kg/injection, schedule: Q01DX010 (ip), vehicle: saline.
The mark [11] stands for this setting: dose: 1.0 mg/kg/injection, schedule: Q01DX010 (ip), vehicle: saline.
Where [12] appears, read: dose: 25.0 mg/kg/injection, schedule: Q01DX010 (ip), vehicle: saline.
[13] abbreviates: dose: 50.0 mg/kg/injection, schedule: Q01DX010 (ip), vehicle: saline.
Where [14] appears, read: dose: 100.0 mg/kg/injection, schedule: Q01DX010 (ip), vehicle: saline.
The mark [15] stands for this setting: dose: 200.0 mg/kg/injection, schedule: Q01DX010 (ip), vehicle: saline.
[16] abbreviates: dose: 8.0 mg/kg/injection, schedule: Q01DX010 (ip), vehicle: saline.
The mark [17] stands for this setting: dose: 16.0 mg/kg/injection, schedule: Q01DX010 (ip), vehicle: saline.
The mark [18] stands for this setting: dose: 12.5 mg/kg/injection, schedule: Q01DX010 (ip), vehicle: saline.
[19] abbreviates: dose: 125.0 micrograms/kg/injection, schedule: Q01DX010 (ip), vehicle: saline.

Values joined by “and” are separate entries in the source; they are usually repeats but may differ in a detail not shown here. Identical values can stand only once. Toxic doses and inconclusive results are not listed. Starred links: 1 amine or outer side, 2 acyl side, 3 side chain; linkers in the order of their positions; H or OH if unused. Positions of bridges follow the written chain, without caps; N, C: chain ends. Non-standard residues stand in square brackets, D forms with d. Residues, ends and D or L forms follow the SMILES beside them. Chains are numbered I, II in the order given. Actinocin(9to1) = Cc1c2oc3c(C)ccc(C(=O)[*:1])c3nc-2c(C(=O)[*:2])c(N)c1=O; aThr = C[C@H](O)[C@H](N)C(=O)O; NMeV = CN[C@H](C(=O)O)C(C)C; Sar = CNCC(=O)O

For `CCOC(=O)c1[nH]c2ccccc2c1CN(CCCl)CCCl`, the T/C under setting [1] is 96 % of control and the T/C under setting [2] is 111 % of control.

With `OCC1OC(n2cnc3c(Cl)ncnc32)C(O)C1O` (configuration not stated), the T/C by setting is: under setting [3], 95 % of control and 100 % of control; under setting [4], 90 % of control and 100 % of control; under setting [5], 90 % of control and 105 % of control; under setting [6], 90 % of control.

As to `O=c1cn[nH]c(=O)[nH]1`, the T/C was 90 % of control and 110 % of control under setting [3]; 105 % of control and 110 % of control under setting [4]; 105 % of control and 120 % of control under setting [5]; 110 % of control and 120 % of control under setting [6].

For the compound `O[C@H](CN1CC1)[C@@H](O)CN1CC1`, the T/C was 100 % of control under setting [7]; 155 % of control and 181 % of control under setting [8].

Take `CCCSc1ncnc2nc[nH]c12`: the T/C is, setting by setting: (dose: 15.6 mg/kg/injection, schedule: Q01DX010 (ip), vehicle: saline) 104 % of control; (dose: 31.3 mg/kg/injection, schedule: Q01DX010 (ip), vehicle: saline) 90 % of control and 100 % of control; under setting [3], 90 % of control and 104 % of control; under setting [4], 90 % of control.

Take `CO[C@H](C(=O)[C@@H](O)[C@@H](C)O)[C@@H]1Cc2cc3cc(OC4CC(OC5CC(O)C(O)C(C)O5)C(O)C(C)O4)c(C)c(O)c3c(O)c2C(=O)[C@H]1OC1CC(OC2CC(OC3CC(C)(O)C(O)C(C)O3)C(O)C(C)O2)C(O)C(C)O1` (some centres not stated): the T/C is 95 % of control under setting [9], 95 % of control under setting [10] and 104 % of control under setting [11].

`Cc1c2oc3c(C)ccc(C(=O)N[C@@H]4C(=O)N[C@H](C(C)C)C(=O)N5CCC[C@H]5C(=O)N(C)CC(=O)N(C)[C@@H](C(C)C)C(=O)O[C@H]4C)c3nc-2c(C(=O)N[C@@H]2C(=O)N[C@H](C(C)C)C(=O)N3CCC[C@H]3C(=O)N(C)CC(=O)N(C)[C@@H](C(C)C)C(=O)O[C@H]2C)c(N)c1=O` (I: [aThr][dV]P[Sar][NMeV] / II: [aThr][dV]P[Sar][NMeV]; ester I:1-I:C, II:1-II:C; linker I:N-II:N via Actinocin(9to1)): the T/C was 160 % of control (dose: 25.0 micrograms/kg/injection, schedule: Q01DX010 (ip), vehicle: other) and 190 % of control (dose: 50.0 micrograms/kg/injection, schedule: Q01DX010 (ip), vehicle: other).

Regarding `O=C1C(NC(=O)C2CCCCC2)=C(N2CC2)C(=O)C(NC(=O)C2CCCCC2)=C1N1CC1`, the T/C was 90 % of control and 100 % of control under setting [12]; 90 % of control and 100 % of control under setting [13]; 90 % of control and 100 % of control under setting [14]; 100 % of control and 110 % of control under setting [15].

As to `C[n+]1c2ccccc2nc2c(N)cc(N)cc21`, under setting [16], the T/C was 115 % of control.

Turning to `C[C@]12C=CC(=O)C=C1CC[C@@H]1[C@@H]2[C@@H](O)C[C@@]2(C)[C@H]1CC[C@]2(O)C(=O)CO`, the T/C runs as follows: (dose: 25.0 mg/kg/injection, schedule: Q01DX010 (sc), vehicle: steriod suspending solution) 118 % of control; (dose: 50.0 mg/kg/injection, schedule: Q01DX010 (sc), vehicle: steriod suspending solution) 109 % of control; (dose: 100.0 mg/kg/injection, schedule: Q01DX010 (sc), vehicle: steriod suspending solution) 100 % of control; (dose: 200.0 mg/kg/injection, schedule: Q01DX010 (sc), vehicle: steriod suspending solution) 100 % of control.

In the case of `C1CN1c1nc(N2CC2)nc(N2CC2)n1`, the T/C runs as follows: (dose: 0.13 mg/kg/injection, schedule: Q01DX010 (ip), vehicle: saline) 90 % of control and 91 % of control; under setting [9], 108 % of control and 110 % of control; under setting [11], 90 % of control.

With `O=C(Nc1ccc(C2=NCCN2)cc1)c1cccc(C(=O)Nc2ccc(C3=NCCN3)cc2)c1`, the T/C under setting [16] is 155 % of control and 166 % of control; the T/C under setting [17] is 185 % of control and 194 % of control; the T/C (dose: 32.0 mg/kg/injection, schedule: Q01DX010 (ip), vehicle: saline) is 200 % of control and 238 % of control; the T/C (dose: 64.0 mg/kg/injection, schedule: Q01DX010 (ip), vehicle: saline) is 250 % of control and 255 % of control.

As to `N#CCSc1ncnc2nc[nH]c12`, the T/C is, setting by setting: (dose: 15.0 mg/kg/injection, schedule: Q01DX010 (ip), vehicle: saline) 91 % of control; (dose: 30.0 mg/kg/injection, schedule: Q01DX010 (ip), vehicle: saline) 94 % of control and 95 % of control; (dose: 60.0 mg/kg/injection, schedule: Q01DX010 (ip), vehicle: saline) 91 % of control and 94 % of control; (dose: 120.0 mg/kg/injection, schedule: Q01DX010 (ip), vehicle: saline) 94 % of control.

Turning to `CN(N=O)C(=O)NC(C=O)C(O)C(O)C(O)CO` (configuration not stated), the T/C reads like this: under setting [18], 100 % of control; under setting [12], 115 % of control; under setting [14], 105 % of control.

With `Cc1cc(N(CCCl)CCCl)ccc1N=Nc1ccccc1C(=O)O`, the T/C is 104 % of control and 105 % of control (dose: 5.0 mg/kg/injection, schedule: Q01DX010 (ip), vehicle: saline); 109 % of control and 110 % of control under setting [1]; 115 % of control under setting [2].

Regarding `CS(=O)(=O)OCCCl`, the T/C (dose: 18.8 mg/kg/injection, schedule: Q01DX010 (ip), vehicle: saline) is 94 % of control; the T/C (dose: 75.0 mg/kg/injection, schedule: Q01DX010 (ip), vehicle: saline) was 90 % of control and 110 % of control; the T/C (dose: 150.0 mg/kg/injection, schedule: Q01DX010 (ip), vehicle: saline) was 118 % of control and 121 % of control.

For the compound `CSCS(=O)C[C@H](CO)NC(=O)/C=C/c1c(C)[nH]c(=O)[nH]c1=O` (some centres not stated), the T/C by setting is: under setting [7], 109 % of control; under setting [19], 100 % of control; under setting [8], 100 % of control; (dose: 500.0 micrograms/kg/injection, schedule: Q01DX010 (ip), vehicle: saline) 90 % of control.

Take `CC(=O)N(C)C`: the T/C is 95 % of control and 120 % of control under setting [3]; 90 % of control and 95 % of control under setting [4]; 105 % of control and 110 % of control under setting [5]; 110 % of control under setting [6].

For `CS(=O)(=O)OCC(O)C(O)COS(C)(=O)=O` (configuration not stated), the T/C runs as follows: under setting [15], 86 % of control; (dose: 400.0 mg/kg/injection, schedule: Q01DX010 (ip), vehicle: saline) 93 % of control; (dose: 800.0 mg/kg/injection, schedule: Q01DX010 (ip), vehicle: saline) 100 % of control.

As to `N#C[C@@H]1C2C=CC(CC2)[C@H]1C#N`, the T/C by setting is: (dose: 31.0 micrograms/kg/injection, schedule: Q01DX010 (ip), vehicle: saline) 90 % of control; (dose: 63.0 micrograms/kg/injection, schedule: Q01DX010 (ip), vehicle: saline) 118 % of control; under setting [19], 109 % of control; under setting [8], 90 % of control.

As to `CN(N=O)C(N)=O`, the T/C is 110 % of control under setting [1]; 150 % of control under setting [2]; 95 % of control (dose: 40.0 mg/kg/injection, schedule: Q01DX010 (ip), vehicle: saline).

On to `C=CC(CN1CC1)OC(C)=O` (configuration not stated), for which the T/C was 90 % of control and 95 % of control (dose: 2.0 mg/kg/injection, schedule: Q01DX010 (ip), vehicle: saline); 100 % of control and 118 % of control (dose: 4.0 mg/kg/injection, schedule: Q01DX010 (ip), vehicle: saline); 95 % of control and 100 % of control under setting [17].

With `C[C@H]1C(=O)O[C@@H]2CCN3CC=C(COC(=O)[C@](C)(O)[C@@]1(C)O)[C@H]23`, the T/C (dose: 3.13 mg/kg/injection, schedule: Q01DX010 (ip), vehicle: saline) was 100 % of control and 103 % of control; the T/C (dose: 6.25 mg/kg/injection, schedule: Q01DX010 (ip), vehicle: saline) is 91 % of control and 111 % of control; the T/C under setting [18] is 91 % of control; the T/C under setting [12] was 91 % of control and 96 % of control.

As for `N=C(N)c1ccc(Nc2ccc(C(=N)N)cc2)cc1`, the T/C (dose: 12.0 mg/kg/injection, schedule: Q01DX010 (ip), vehicle: saline) was 90 % of control.

`NC(Cc1c[nH]c2ccc(N(CCCl)CCCl)cc12)C(=O)O` (configuration not stated): under setting [10], the T/C was 104 % of control.

Take `Nc1nc2n[nH]nc2c(=O)[nH]1`: the T/C by setting is: (dose: 25.0 mg/kg/injection, schedule: Q01DX010 (ip), vehicle: alkali diluted with saline) 110 % of control; (dose: 50.0 mg/kg/injection, schedule: Q01DX010 (ip), vehicle: alkali diluted with saline) 112 % of control.

`COc1cc(-c2ccc(Nc3ccccc3C(=O)O)c(OC)c2)ccc1Nc1ccccc1C(=O)O`: the T/C is, setting by setting: under setting [12], 154 % of control; under setting [13], 163 % of control; under setting [14], 172 % of control.
